Converted amounts (≈) assume the structure as drawn. Read-outs that look alike come from different tables or passages of the source.
Tests used:
[1] = tested on: 3T3 cells; experiment: Cell proliferation assay (SRB), 3T3; assay type: cell-based, mouse; details: for IC50: Mus musculus
[2] = tested on: SK-Br-3 cells; experiment: Cell proliferation assay (SRB), SK-Br-3; assay type: cell-based; details: for IC50: Homo sapiens, SK-BR-3, 48 h, read-out: CELL IC50 SKBr3
[3] = target: mouse fibroblast cell line transfected with the HER-2 oncogene (3T3/neu) (UniProt P04626, cells depend on it, species not given); experiment: Cell proliferation assay (SRB), 3T3/neu; assay type: cell-based
[4] = tested on: SW620 cells; experiment: Cell proliferation assay (SRB), SW620; assay type: cell-based; details: for IC50: Homo sapiens, SW-620, 48 h, read-out: CELL IC50 SW620
[5] = tested on: A431 cells; experiment: Cell proliferation assay (SRB), A431; assay type: cell-based; details: Homo sapiens, A-431, 48 h, read-out: CELL IC50 A431
[6] = target: T1, EGFR (Homo sapiens, UniProt P00533); experiment: Cell-free autophosphorylation kinase assay (ELISA), EGFR; assay type: biochemical; set-up: Purified recombinant C-terminal fragment of each enzyme is incubated with ATP; details: read-out: Enzyme IC50 EGFR (converted)
Target sequence in this assay (P00533 669-1210 limits assumed): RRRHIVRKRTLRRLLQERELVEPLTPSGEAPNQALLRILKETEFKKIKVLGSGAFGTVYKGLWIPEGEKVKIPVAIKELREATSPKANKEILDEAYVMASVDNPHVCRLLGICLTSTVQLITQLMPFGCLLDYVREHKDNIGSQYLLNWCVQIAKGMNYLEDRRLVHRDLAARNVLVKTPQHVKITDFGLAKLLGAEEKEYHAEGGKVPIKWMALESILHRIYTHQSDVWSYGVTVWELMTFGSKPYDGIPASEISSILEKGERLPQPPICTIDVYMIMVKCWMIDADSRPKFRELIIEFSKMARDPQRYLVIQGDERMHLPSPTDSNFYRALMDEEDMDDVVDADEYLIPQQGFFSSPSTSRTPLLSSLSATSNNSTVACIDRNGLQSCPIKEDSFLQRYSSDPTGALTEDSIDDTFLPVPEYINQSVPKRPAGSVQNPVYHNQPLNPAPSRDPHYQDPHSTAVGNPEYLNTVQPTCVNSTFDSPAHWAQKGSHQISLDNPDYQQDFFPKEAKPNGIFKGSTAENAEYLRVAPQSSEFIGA

[7] = target: T1, EGFR; experiment: EGFR receptor phosphorylation in A431 cells (immunoblot); assay type: cell-based; set-up: They also repressed EGF-dependent phosphorylation of EGFR in A431 cells; endogenous in cells; host or cells: A431; details: for IC50 receptor phosphorylation A431: EGFR phosphorylation, 3 hours at 37° C., immunoblot; for IC50: span over the three compounds, read-out: EGF-dependent phosphorylation of EGFR in A431 cells IC50
Target sequence in this assay (P00533 25-1210): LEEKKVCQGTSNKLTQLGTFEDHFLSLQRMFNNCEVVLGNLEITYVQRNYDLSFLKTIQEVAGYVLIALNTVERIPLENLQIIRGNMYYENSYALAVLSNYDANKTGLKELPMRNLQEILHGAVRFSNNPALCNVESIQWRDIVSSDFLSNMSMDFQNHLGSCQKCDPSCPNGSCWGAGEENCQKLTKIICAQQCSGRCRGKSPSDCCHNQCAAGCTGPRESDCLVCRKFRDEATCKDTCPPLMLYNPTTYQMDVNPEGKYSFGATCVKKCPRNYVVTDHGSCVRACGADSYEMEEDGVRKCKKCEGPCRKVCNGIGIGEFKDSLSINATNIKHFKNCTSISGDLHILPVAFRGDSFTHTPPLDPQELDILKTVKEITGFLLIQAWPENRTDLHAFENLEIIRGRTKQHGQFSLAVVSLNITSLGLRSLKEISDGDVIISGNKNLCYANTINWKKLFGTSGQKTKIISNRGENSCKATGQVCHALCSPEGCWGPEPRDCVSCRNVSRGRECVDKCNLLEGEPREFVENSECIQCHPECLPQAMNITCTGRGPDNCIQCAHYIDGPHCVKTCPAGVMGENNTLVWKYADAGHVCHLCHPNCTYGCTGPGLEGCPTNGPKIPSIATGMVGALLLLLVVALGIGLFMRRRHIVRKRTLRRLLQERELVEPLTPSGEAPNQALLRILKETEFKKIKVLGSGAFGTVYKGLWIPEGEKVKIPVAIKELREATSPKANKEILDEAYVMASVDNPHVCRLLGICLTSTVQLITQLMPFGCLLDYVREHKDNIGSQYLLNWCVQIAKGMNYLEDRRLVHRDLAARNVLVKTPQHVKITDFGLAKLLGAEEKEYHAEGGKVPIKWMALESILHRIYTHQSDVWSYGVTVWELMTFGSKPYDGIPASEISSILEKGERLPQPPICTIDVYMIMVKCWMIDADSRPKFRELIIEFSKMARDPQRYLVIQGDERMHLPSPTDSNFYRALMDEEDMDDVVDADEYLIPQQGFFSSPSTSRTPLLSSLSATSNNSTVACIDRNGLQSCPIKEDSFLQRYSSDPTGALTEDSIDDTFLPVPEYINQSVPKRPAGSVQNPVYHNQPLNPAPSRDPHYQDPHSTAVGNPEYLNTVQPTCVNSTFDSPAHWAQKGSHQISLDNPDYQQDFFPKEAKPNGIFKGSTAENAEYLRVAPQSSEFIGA

[8] = target: T2, Her-2 (Homo sapiens, UniProt P04626); experiment: Her-2 receptor phosphorylation in BT474 cells (immunoblot); assay type: cell-based
T2 construct: For Her-2 and EGFR phosphorylation assays, cells (BT474 and A431, respectively) were incubated with various concentrations of compound; endogenous in cells; host or cells: BT474

[9] = tested on: BT474 cells; experiment: Cell proliferation assay (SRB), BT474; assay type: cell-based, human; details: for IC50: Homo sapiens, BT-474, 144 h, read-out: CELL IC50 BT474
[10] = target: T3, recombinant cytoplasmic domain of HER-2 (Homo sapiens, UniProt P04626); experiment: Cell-free autophosphorylation kinase assay (ELISA), HER-2; assay type: biochemical
T3 construct: In a cell-free autophosphorylation assay using the recombinant cytoplasmic domain of HER-2

[11] = tested on: MDA-MB-435 cells; experiment: Cell proliferation assay (SRB), MDA-MB-435; assay type: cell-based; details: for IC50: Homo sapiens, MDA-MB-435, 48 h, read-out: CELL IC50 MDA-MB-435
[12] = tested on: xenografts of 3T3/neu cells; experiment: 3T3/neu tumor xenograft in nude mice; assay type: in vivo, mouse; details: for tumor growth inhibition: day 21
[13] = tested on: HER-2 overexpressing human xenograft models; experiment: HER-2 overexpressing human xenograft models (overall); assay type: in vivo, mouse; details: for MED in the HER-2 overexpressing human xenograft models: mouse, in vivo
[14] = tested on: BT474 xenografts; experiment: BT474 tumor xenograft in nude mice; assay type: in vivo, mouse; details: day 21
[15] = tested on: xenografts of SUM-190; experiment: SUM-190 tumor xenograft in nude mice; assay type: in vivo, mouse; details: 40 mg/kg/day PO, day 28
[16] = tested on: xenografts of SK-OV-3; experiment: SK-OV-3 tumor xenograft in nude mice; assay type: in vivo, mouse; details: day 35
[17] = NIH3T3, 48 h, EGFR −, Her-2 −, 2 days, SRB, read-out: CELL IC50 3T3
[18] = NIH3T3, span over the three compounds, read-out: IC50 isogenic untransfected cells (3T3)
[19] = EGFR −, Her-2 +++, 2 days, SRB, read-out: CELL IC50 3T3/NEU (converted)
[20] = Her-2 phosphorylation, 3 hours at 37° C., immunoblot, read-out: IC50 receptor phosphorylation BT474 (converted)
[21] = ligand-independent receptor phosphorylation decreased by 50% (IC50) in BT474 cells, span over the three compounds
[22] = HER-2 enzyme activity reduced by 50% (IC50), span over the three inhibitors

T3 sequence (P04626 676-1255 limits assumed): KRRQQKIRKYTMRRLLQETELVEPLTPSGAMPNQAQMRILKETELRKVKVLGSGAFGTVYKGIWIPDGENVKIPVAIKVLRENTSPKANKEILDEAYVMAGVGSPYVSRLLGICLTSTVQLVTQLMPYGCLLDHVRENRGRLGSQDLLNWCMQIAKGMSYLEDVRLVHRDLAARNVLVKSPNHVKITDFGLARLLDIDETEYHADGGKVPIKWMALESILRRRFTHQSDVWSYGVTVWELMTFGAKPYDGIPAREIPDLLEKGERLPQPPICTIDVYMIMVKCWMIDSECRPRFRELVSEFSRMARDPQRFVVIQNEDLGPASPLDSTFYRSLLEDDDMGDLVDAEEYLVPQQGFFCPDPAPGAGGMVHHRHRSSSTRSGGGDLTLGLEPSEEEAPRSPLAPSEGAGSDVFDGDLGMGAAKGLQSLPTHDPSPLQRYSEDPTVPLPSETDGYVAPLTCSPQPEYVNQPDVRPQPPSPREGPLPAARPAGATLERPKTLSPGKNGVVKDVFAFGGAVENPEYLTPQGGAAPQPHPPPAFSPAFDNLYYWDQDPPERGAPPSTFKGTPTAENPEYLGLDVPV
T2 sequence (P04626 23-1255): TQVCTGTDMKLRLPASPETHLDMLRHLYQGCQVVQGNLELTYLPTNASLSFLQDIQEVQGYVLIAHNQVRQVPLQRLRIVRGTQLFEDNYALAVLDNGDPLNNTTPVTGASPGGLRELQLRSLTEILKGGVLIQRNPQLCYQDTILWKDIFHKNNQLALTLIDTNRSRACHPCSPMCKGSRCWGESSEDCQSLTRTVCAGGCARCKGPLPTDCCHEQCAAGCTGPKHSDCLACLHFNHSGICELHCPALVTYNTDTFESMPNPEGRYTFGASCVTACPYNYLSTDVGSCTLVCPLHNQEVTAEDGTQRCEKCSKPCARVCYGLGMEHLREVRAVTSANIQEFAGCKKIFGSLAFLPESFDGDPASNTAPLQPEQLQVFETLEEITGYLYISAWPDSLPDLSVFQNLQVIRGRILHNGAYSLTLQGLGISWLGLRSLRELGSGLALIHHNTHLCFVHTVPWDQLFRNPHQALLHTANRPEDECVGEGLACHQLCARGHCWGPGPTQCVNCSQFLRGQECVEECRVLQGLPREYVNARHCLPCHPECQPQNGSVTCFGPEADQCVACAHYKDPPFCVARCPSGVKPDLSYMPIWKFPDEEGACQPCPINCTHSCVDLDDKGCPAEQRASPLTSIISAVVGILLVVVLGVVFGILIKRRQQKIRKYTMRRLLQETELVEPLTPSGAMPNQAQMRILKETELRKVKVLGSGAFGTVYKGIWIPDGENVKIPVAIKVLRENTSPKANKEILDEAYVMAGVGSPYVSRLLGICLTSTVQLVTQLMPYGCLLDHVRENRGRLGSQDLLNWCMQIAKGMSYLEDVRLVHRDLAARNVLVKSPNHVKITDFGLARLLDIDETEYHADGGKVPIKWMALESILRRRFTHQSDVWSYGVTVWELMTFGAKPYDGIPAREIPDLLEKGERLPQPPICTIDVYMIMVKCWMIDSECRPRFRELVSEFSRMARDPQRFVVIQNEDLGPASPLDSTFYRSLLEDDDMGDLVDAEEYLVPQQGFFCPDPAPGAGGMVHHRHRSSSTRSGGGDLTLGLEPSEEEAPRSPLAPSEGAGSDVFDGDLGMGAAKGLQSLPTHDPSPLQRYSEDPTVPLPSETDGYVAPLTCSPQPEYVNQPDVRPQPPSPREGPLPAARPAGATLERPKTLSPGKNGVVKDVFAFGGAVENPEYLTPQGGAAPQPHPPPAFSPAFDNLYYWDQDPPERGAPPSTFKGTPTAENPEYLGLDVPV

Structure (SMILES)	IC50 [1, 17] [µg/mL]	IC50 [1, 18] [nM]	IC50 ([2]; EGFR −, Her-2 +++, 2 days, SRB) [µg/mL]	GI50 [3, 19] [nM]	IC50 ([4]; EGFR −, Her-2 −, 2 days, SRB) [µg/mL]	IC50 ([5]; EGFR +++, Her-2 +, 2 days, SRB) [µg/mL]	IC50 [6] [nM]	IC50 receptor phosphorylation A431 [7] [µg/mL]	IC50 [7] [nM]	IC50 [8, 20] [nM]	IC50 [8, 21] [nM]	IC50 ([9]; EGFR +, Her-2 +++, 6 days, SRB) [µg/mL]	inhibition of the HER-2 enzyme (in words) [10]	IC50 [10, 22] [nM]	IC50 ([11]; EGFR −, Her-2 −, 2 days, SRB) [µg/mL]	tumor growth inhibition ([12]; 20 mg/kg/day PO) [%]	tumor growth inhibition ([12]; 40 mg/kg/day PO) [%]	tumor growth inhibition ([12]; 80 mg/kg/day PO) [%]	MED in the HER-2 overexpressing human xenograft models [13] [mg/kg/day]	maximum tumor growth inhibition ([14]; 10 mg/kg/day PO) [%]	also measured
CCOc1cc2ncc(C#N)c(Nc3ccc(OCc4ccccc4)c(Cl)c3)c2cc1NC(=O)/C=C/CN(C)C [Example 1, (E)-N-{4-[4-(benzyloxy)-3-chloroanilino]-3-cyano-7-ethoxy-6-quinolinyl}-4-(dimethylamino)-2-butenamide]	0.38	683 to 906	0.0015 (≈ 0.0027 µM)	5.22	0.24 (≈ 0.432 µM)	0.062 (≈ 0.111 µM)	50.4	0.0031 (≈ 0.00557 µM)	3 to 7	13.5	5 to 23	0.0014 (≈ 0.00252 µM)	potent inhibitors	33 to 65	0.47 (≈ 0.845 µM)	–	–	–	–	–	IC50 ([10]; autophosphorylation, ELISA, read-out: Enzyme IC50 HER-2 (converted)): 64.7 nM
CCOc1cc2ncc(C#N)c(Nc3ccc(OCc4ccccn4)c(Cl)c3)c2cc1NC(=O)/C=C/CN(C)C [Example 2, (E)-N-{4-[3-chloro-4-(2-pyridinylmethoxy)anilino]-3-cyano-7-ethoxy-6-quinolinyl}-4-(dimethylamino)-2-butenamide]	–	–	–	–	–	–	–	–	–	–	–	–	potent inhibitors	–	–	53	95	98	~10	76	IC50 ([1]; NIH3T3, 48 h, read-out: CELL IC50 3T3): 0.39 µg/mL; IC50 ([1]; NIH3T3, read-out: IC50 isogenic untransfected cells (3T3)): 683 to 906 nM; IC50 [2]: 0.001 µg/mL (≈ 0.0018 µM); GI50 ([3]; read-out: CELL IC50 3T3/NEU, mouse fibroblast cell line transfected with the her-2 oncogene (3t3/neu)): 3.23 nM; IC50 [4]: 0.44 µg/mL (≈ 0.79 µM); IC50 [5]: 0.045 µg/mL (≈ 0.0808 µM); maximum tumor growth inhibition ([14]; 40 mg/kg/day PO): 95%; IC50 [9]: 0.0013 µg/mL (≈ 0.00233 µM); IC50 [11]: 0.44 µg/mL (≈ 0.79 µM)
CCOc1cc2ncc(C#N)c(Nc3ccc(OCc4cccc(F)c4)c(Cl)c3)c2cc1NC(=O)/C=C/CN(C)C [Example 3, (E)-N-(4-{3-chloro-4-[(3-fluorobenzyl)oxy]anilino}-3-cyano-7-ethoxy-6-quinolinyl)-4-(dimethylamino)-2-butenamide]	0.52	683 to 906	0.0015 (≈ 0.00261 µM)	4.01	0.29 (≈ 0.505 µM)	0.069 (≈ 0.12 µM)	33.1	0.0042 (≈ 0.00732 µM)	3 to 7	22.6	5 to 23	0.0024 (≈ 0.00418 µM)	potent inhibitors	33 to 65	0.51 (≈ 0.888 µM)	65	97	99	10	59	tumor growth inhibition, statistically-significant ([12]; 10 mg/kg/day PO, two other independent tests): 21-33%; minimum efficacious dose (MED) ([12]; smallest dose with sustained, statistically-significant (p<0.05) reduction of tumor growth): 10 mg/kg/day; tumor behaviour after treatment was completed (in words) ([13]; after end of treatment): evidence of re-growth; tumor regression (in words) ([13]; during dosing): no decrease in tumor size below the initial size; tumor growth inhibition [15]: 94%; maximum tumor growth inhibition ([14]; 40 mg/kg/day PO): 96%; Enzyme IC50 HER-2 ([10]; autophosphorylation, ELISA): 0.019 µg/mL; tumor growth inhibition ([16]; 20 mg/kg/day PO): 86%; tumor growth inhibition ([16]; 60 mg/kg/day PO): 91%
CCOc1cc2ncc(C#N)c(Nc3ccc(F)c(Cl)c3)c2cc1NC(=O)C=CCN(C)C [Example 20, 4-Dimethyl-but-2-enoic acid [4-(3-chloro-4-fluoro-phenylamino)-3-cyano-7-ethoxy-quinolin-6-yl]-amide]	–	–	–	–	–	–	–	–	–	–	–	–	is not	–	–	–	–	–	–	–	CELL IC50 3T3 ([1]; EGFR −, Her-2 −, 2 days, SRB): 0.26 µg/mL; CELL IC50 SKBr3 ([2]; EGFR −, Her-2 +++, 2 days, SRB): 0.0071 µg/mL; CELL IC50 SW620 ([4]; EGFR −, Her-2 −, 2 days, SRB): 0.32 µg/mL; IC50 receptor phosphorylation BT474 ([8]; Her-2 phosphorylation, 3 hours at 37° C., immunoblot): 0.080 µg/mL (≈ 0.171 µM); CELL IC50 BT474 ([9]; EGFR +, Her-2 +++, 6 days, SRB): 0.020 µg/mL; Enzyme IC50 HER-2 ([10]; autophosphorylation, ELISA): 0.58 µg/mL; CELL IC50 MDA-MB-435 ([11]; EGFR −, Her-2 −, 2 days, SRB): 0.34 µg/mL
